Source: patent publication US20020026053A1, “Novel 3-(substituted) -2- indolinones compounds and use thereof as inhibitors of protein kinase activity” (priority 1997, published 2002)

Target: T1, Met receptor (EGFR/Met chimeric cells, EMR) (Homo sapiens, UniProt P08581)
T1 construct: expressed in transfected cells; the other entry of the earlier key: EGFR (P00533, Epidermal growth factor receptor)
Test: Met Autophosphorylation Assay
Assay type: biochemical
Settings: protocol P.130
Outline: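 Met phosphorylation was measured by capture ELISA. Lysates (90 μg/100 μl, HNTG plus 1 mM PMSF) from transiently transfected EGFR/Met chimera (EMR) cells were bound for 60 min at room temperature to wells holding rabbit anti-Met (C-28) on goat anti-rabbit coat. Phosphotyrosine was the read-out.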

T1 sequence (P08581 with tags, fused parts or gaps): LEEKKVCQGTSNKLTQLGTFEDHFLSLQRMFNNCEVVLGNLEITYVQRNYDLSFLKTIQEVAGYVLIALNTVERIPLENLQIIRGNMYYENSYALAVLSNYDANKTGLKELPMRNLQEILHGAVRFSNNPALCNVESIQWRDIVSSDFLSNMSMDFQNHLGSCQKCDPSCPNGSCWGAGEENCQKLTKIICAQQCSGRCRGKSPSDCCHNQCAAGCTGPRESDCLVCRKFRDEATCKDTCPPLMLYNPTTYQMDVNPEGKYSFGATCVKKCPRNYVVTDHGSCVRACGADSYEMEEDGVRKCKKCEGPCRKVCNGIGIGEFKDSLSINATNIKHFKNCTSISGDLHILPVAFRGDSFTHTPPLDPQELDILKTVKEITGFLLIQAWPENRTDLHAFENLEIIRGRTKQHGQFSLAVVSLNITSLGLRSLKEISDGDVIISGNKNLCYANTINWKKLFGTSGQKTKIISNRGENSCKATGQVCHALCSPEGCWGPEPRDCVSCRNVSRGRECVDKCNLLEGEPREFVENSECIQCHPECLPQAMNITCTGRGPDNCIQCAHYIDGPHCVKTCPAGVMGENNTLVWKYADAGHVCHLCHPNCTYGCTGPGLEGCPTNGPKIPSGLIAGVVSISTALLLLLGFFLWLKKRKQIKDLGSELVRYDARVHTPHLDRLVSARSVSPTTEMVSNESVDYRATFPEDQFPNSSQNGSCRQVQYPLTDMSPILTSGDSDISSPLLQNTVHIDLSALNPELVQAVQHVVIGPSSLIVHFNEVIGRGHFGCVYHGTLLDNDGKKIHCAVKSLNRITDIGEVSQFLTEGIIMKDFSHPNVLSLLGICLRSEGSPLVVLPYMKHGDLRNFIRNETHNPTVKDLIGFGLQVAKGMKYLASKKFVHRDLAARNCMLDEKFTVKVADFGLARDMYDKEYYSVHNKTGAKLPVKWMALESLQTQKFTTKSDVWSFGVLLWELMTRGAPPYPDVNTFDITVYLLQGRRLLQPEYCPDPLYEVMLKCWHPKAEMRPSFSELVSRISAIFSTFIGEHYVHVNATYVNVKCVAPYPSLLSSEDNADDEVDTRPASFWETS

Row | Compound | Met Kinase % Inhibition (P.130)
1 | COc1ccc(Oc2cccc(C=C3C(=O)Nc4c(Br)cc(Br)c(C)c43)c2)cc1 [10739/H08] | 22.9%
2 | Cc1c(Br)cc(Br)c2c1C(=Cc1ccoc1)C(=O)N2 [10739/H10] | 62.4%
